Tests used:
Mt ODCase = Mt ODCase (Methanothermobacter thermautotrophicus, UniProt O26232); assay: biochemical; design: species or system M. thermoautotrophicum; settings: reversible inhibition, 20 nM enzyme, 40 μM OMP
Hs ODCase = molecular target: T1, Hs ODCase (Homo sapiens, UniProt P11172); assay: Reversible (competitive) inhibition of ODCase, calorimetric assay; type: biochemical; settings: 37° C., 60 nM enzyme
T1 construct: ODCase region of human UMP synthase
Procedure: The stock solution of enzyme (60 μM) was prepared in 50 mM Tris (pH 7.5), 20 mM DTT, and 40 mM NaCl and incubated overnight at 4° C. This stock sample was later used to prepare the enzyme assay samples. The enzyme was kept on ice during the experiment. The enzyme stock was diluted with 50 mM Tris buffer containing 1 mM DTT to prepare 60 nM enzyme assay samples. The final substrate concentration was 15 or 20 μM. Concentrated samples of inhibitors were prepared in 50 mM Tris (pH 7.5). The volumes and concentrations of the enzyme and substrate were the same as described above for the reaction without inhibitor. All three compounds were tested in a competitive inhibition assay where enzyme is mixed with the inhibitor and the reaction is initiated by the substrate addition. Assay samples were prepared in 50 mM Tris, 1 mM DTT. The final assay concentration of 5-F-6-azido-UMP was 0, 0.25, 0.50, 0.75, 1.0 μM. The assay samples were prepared with 0, 0.2, 0.4, 1.0, and 2.0 μM and 0, 50, 100, 250, 500 μM 5-fluoro-6-ethyl-UMP.
The initial data analyses were done in Origin 7.0 software. The raw data representing the heat change over time were converted to the reaction rate at each recorded time point. A Michaelis-Menten plot was constructed and the data were fitted to MM equation (Eq. 1) to determine the kinetic parameters KM and kcat. The molar enthalpy (ΔH) was also automatically calculated.
To calculate the Ki the data were exported to GraFit 5.0 program. The data points were fitted to the competitive inhibition equation (Eq. 2) and the Ki was estimated from the Dixon plot.

OCI-Ly-7 [1] = assay: Apoptosis assay (Annexin V/PI, FACS); type: cell-based, human; settings: OCI-Ly-7, 4 μM
Procedure: (§1) Cells were seeded in duplicate at 10^5 cells/ml in 24-well plates. 4 μM final concentration of compounds Io, In or Iag (Table 2) were added immediately after seeding. Water was added to the control wells. Every 24 hr, cells were harvested, washed in PBS, and stained with Annexin V/propidium iodide (PI) (1:200) using Annexin-V-FLUOS staining kit (Roche) according to the manufacturer's instructions. Annexin V is a Ca^2+− dependent phospholipids-binding protein with high affinity for phosphatidylserine (PS). It can be used as a probe to detect PS exposure on the outer leaflet of the cell membrane and is therefore widely used for detection of apoptotic cells. Unlike apoptotic cells (Annexin V^+/PI^−), necrotic cells are Annexin V^+PI^+. PI is a DNA stain. FACS was used to analyze the staining.
(§2) To determine whether reduced expansion of different cell lines in culture with Io, In, and Iag could be attributed to a decrease in cell survival, we stained treated and control cells with Annexin V and PI. Four cell lines (OCI-AML-1, OCI-Ly7, OCI-My2, and SKW3) were cultured in presence of 4 μM of […] for 4 days. Cells were harvested daily and Annexin V/PI staining was done by FACS. Our results clearly show an increase in the percentage of apoptotic (annexin V^+PI^−) cells cultured with Io, In, or Iag compared to the control cells (Table 6). Increased cell death was first observed on day 2 of culture.

SKW3 [2] = assay: Apoptosis assay (Annexin V/PI, FACS); type: cell-based, human; settings: SKW3, 4 μM
Procedure: as §1, §2

OCI-AML-1 [3] = assay: Apoptosis assay (Annexin V/PI, FACS); type: cell-based, human; settings: OCI-AML-1, 4 μM
Procedure: as §1, §2

OCI-My-2 [4] = assay: Apoptosis assay (Annexin V/PI, FACS); type: cell-based, human; settings: OCI-My-2, 4 μM
Procedure: as §1, §2

[5] = system: leukemias (OCI-AML-1, OCI-AML-2, SKW3), lymphomas (OCI-Ly-7), multiple myeloma (OCI-My-2); assay: In vitro cell proliferation assay (WST.1), summary over cell lines; type: cell-based; settings: Homo sapiens; OCI-AML-1, OCI-AML-2, SKW3, OCI-Ly-7, OCI-My-2; read-out: IC50 values, range over cell lines
Procedure: (§3) These cell lines were grown in Iscove's MDM supplemented with 5% fetal calf serum (FCS), 50 μM 2-mercaptoethanol, 100 μg/ml penicillin, and 100 μg/ml streptomycin. Cell lines growing in suspension were maintained at 0.5-1.5×10^6 cell/ml, while adherent cell lines were maintained at subconfluent densities.
(§4) Cell lines were seeded in triplicate at 10^4 cells/100 μl in 96-well plates. Peripheral blood mononuclear cells were seeded in triplicate at 10^5 cells/100 μl in 96-well plate. Different test compounds were added immediately at final concentrations ranging between 0 to 100 μM. All compounds were dissolved in sterile deionized water, so water was added to the control wells. On day 3, WST.1 assay (Roche) was used to measure the effect of different test compounds on cell growth. WST.1 assay is a calorimetric assay for the nonradioactive quantification of cell proliferation, cell viability, and cytotoxicity. The assay was performed according to manufacturer's instructions (Roche). It relies on the cleavage by cellular enzymes of WST.1 (water soluble tetrazolium salt: 4-[3-(4-iodophenyl)-2-(4-nitrophenyl)-2H-5-tetrazolio]-1,3-benzene disulfonate) to formazan. The amount of formazan dye formed correlates to the number of metabolically active cells in the culture and is readily read in an ELISA microplate reader using an absorbance wavelength of 440 nm. These OD values are plotted against concentrations of different compounds and IC50 is determined for each compound.

MDA468 = assay: In vitro cell proliferation assay (WST.1, Table 5); type: cell-based; settings: Homo sapiens, 72 h; MDA468, day 3
Procedure: as §3, §4

OCI-Ly-7 [6] = assay: In vitro cell proliferation assay (WST.1, Table 5); type: cell-based; settings: Homo sapiens, OCI-Ly7, 72 h; OCI-Ly-7, day 3
Procedure: as §3, §4

MCF7 = assay: In vitro cell proliferation assay (WST.1, Table 5); type: cell-based; settings: Homo sapiens, 72 h; MCF7, day 3
Procedure: as §3, §4

SKW3 [7] = assay: In vitro cell proliferation assay (WST.1, Table 5); type: cell-based; settings: Homo sapiens, 72 h; SKW3, day 3
Procedure: as §3, §4

OCI-AML-1 [8] = assay: In vitro cell proliferation assay (WST.1, Table 5); type: cell-based; settings: Homo sapiens, 72 h; OCI-AML-1, day 3
Procedure: as §3, §4

OCI-My-2 [9] = assay: In vitro cell proliferation assay (WST.1, Table 5); type: cell-based; settings: Homo sapiens, 72 h; OCI-My-2, day 3
Procedure: as §3, §4

PC3 = assay: In vitro cell proliferation assay (WST.1, Table 5); type: cell-based; settings: Homo sapiens, PC-3, 72 h; PC3, day 3
Procedure: as §3, §4

OCI-AML-2 = assay: In vitro cell proliferation assay (WST.1, Table 5); type: cell-based; settings: Homo sapiens, OCI-AML2, 72 h; OCI-AML-2, day 3
Procedure: as §3, §4

LOX = assay: In vitro cell proliferation assay (WST.1, Table 5); type: cell-based, human; settings: day 3
Procedure: as §3, §4

COLO205 = assay: In vitro cell proliferation assay (WST.1, Table 5); type: cell-based; settings: Homo sapiens, COLO 205, 72 h; COLO205, day 3
Procedure: as §3, §4

OCVR4 = assay: In vitro cell proliferation assay (WST.1, Table 5); type: cell-based; settings: Homo sapiens, 72 h; OCVR4, day 3
Procedure: as §3, §4

T47D = assay: In vitro cell proliferation assay (WST.1, Table 5); type: cell-based; settings: Homo sapiens, 72 h, day 3
Procedure: as §3, §4

HS58T = assay: In vitro cell proliferation assay (WST.1, Table 5); type: cell-based; settings: Homo sapiens, 72 h, day 3
Procedure: as §3, §4

SNB19 = assay: In vitro cell proliferation assay (WST.1, Table 5); type: cell-based; settings: Homo sapiens, SNB-19, 72 h; SNB19, day 3
Procedure: as §3, §4

CCD967 = assay: In vitro cell proliferation assay (WST.1, Table 5); type: cell-based; settings: Homo sapiens, CCD-967, 72 h; CCD967 normal skin line, day 3
Procedure: as §3, §4

| SMILES | Ki (Mt ODCase) [µM] | Ki (Hs ODCase) [µM] | Fold increase in % of apoptotic (annexinV+PI−) cells: drug-treated vs.control (OCI-Ly-7 [1]; day 1) [fold] | Fold increase in % of apoptotic (annexinV+PI−) cells: drug-treated vs.control (OCI-Ly-7 [1]; day 2) [fold] | Fold increase in % of apoptotic (annexinV+PI−) cells: drug-treated vs.control (OCI-Ly-7 [1]; day 3) [fold] | Fold increase in % of apoptotic (annexinV+PI−) cells: drug-treated vs.control (SKW3 [2]; day 1) [fold] | Fold increase in % of apoptotic (annexinV+PI−) cells: drug-treated vs.control (SKW3 [2]; day 2) [fold] | Fold increase in % of apoptotic (annexinV+PI−) cells: drug-treated vs.control (SKW3 [2]; day 3) [fold] | Fold increase in % of apoptotic (annexinV+PI−) cells: drug-treated vs.control (OCI-AML-1 [3]; day 1) [fold] | Fold increase in % of apoptotic (annexinV+PI−) cells: drug-treated vs.control (OCI-AML-1 [3]; day 2) [fold] | IC50 [5] [µM] | IC50 (MDA468) [µM] | IC50 (OCI-Ly-7 [6]) [µM] | IC50 (MCF7) [µM] | IC50 (SKW3 [7]) [µM] | IC50 (OCI-AML-1 [8]) [µM] | IC50 (OCI-My-2 [9]) [µM] | IC50 (PC3) [µM] | IC50 (OCI-AML-2) [µM] | IC50 (LOX; Homo sapiens, 72 h) [µM] | further results |
| --- | --- | --- | --- | --- | --- | --- | --- | --- | --- | --- | --- | --- | --- | --- | --- | --- | --- | --- | --- | --- | --- |
| O=c1[nH]c(=O)n([C@@H]2O[C@H](COP(=O)(O)O)[C@@H](O)[C@H]2O)cc1F [Compound 5-F-UMP, 5-F-UMP, reference compound] | 646 ± 15 | 97.8 ± 5.9 | – | – | – | – | – | – | – | – | – | – | – | – | – | – | – | – | – | – | – |
| O=Cc1c(F)c(=O)[nH]c(=O)n1C1OC(CO)C(O)C1O (stereo not shown) [Iag] | – | – | 0.82 | 2.1 | 6.2 | 1.2 | 4.6 | 5.2 | 1.4 | 5.3 | 0.3 to 2.1 | 1.9 | 0.6 | 23.7 | 0.3 | 0.3 | 0.4 | > 100 | 0.7 | 0.3 | Fold increase in % of apoptotic (annexinV+PI−) cells: drug-treated vs.control (OCI-AML-1 [3]; day 3): 14 fold; Fold increase in % of apoptotic (annexinV+PI−) cells: drug-treated vs.control (OCI-My-2 [4]; day 1): 0.77 fold; Fold increase in % of apoptotic (annexinV+PI−) cells: drug-treated vs.control (OCI-My-2 [4]; day 2): 1.7 fold; Fold increase in % of apoptotic (annexinV+PI−) cells: drug-treated vs.control (OCI-My-2 [4]; day 3): 2.7 fold; IC50 (LOX): 0.4 µM |
| CCc1c(F)c(=O)[nH]c(=O)n1C1OC(CO)C(O)C1O (stereo not shown) [Iah] | 29 ± 0.3 | 0.353 ± 0.01 | – | – | – | – | – | – | – | – | 0.3 to 2.1 | 5.3 | 1.9 | 31.4 | 1.2 | 2.1 | 1.4 | > 100 | – | 4.5 | – |
| Nc1c(F)c(=O)[nH]c(=O)n1[C@@H]1O[C@H](CO)[C@@H](O)[C@H]1O [In, 5-Fluoro-6-amino uridine] | – | 16.6 ± 0.7 | – | – | – | – | – | – | – | – | 0.3 to 2.1 | 2.6 | 1.3 | 1.4 | 0.6 | 0.7 | 0.9 | > 4 | 0.9 | 3.4 | IC50 (COLO205): 3.3 µM; IC50 (OCVR4): 2 µM; IC50 (T47D): > 4 µM; IC50 (HS58T): > 4 µM; IC50 (SNB19): > 4 µM; IC50 (CCD967): > 4 µM |
| [N-]=[N+]=Nc1c(F)c(=O)[nH]c(=O)n1[C@@H]1O[C@H](CO)[C@@H](O)[C@H]1O [Io, 5-fluoro-6-azido uridine] | 0.357 ± 0.028 | – | 0.74 | 1.9 | 6.6 | 1.2 | 4.7 | 4.4 | 1.5 | 9.3 | 0.3 to 2.1 | 1.8 | 0.7 | 1 | 0.4 | 0.6 | 0.6 | > 4 | 0.7 | 2.3 | Fold increase in % of apoptotic (annexinV+PI−) cells: drug-treated vs.control (OCI-AML-1 [3]; day 3): 16 fold; Fold increase in % of apoptotic (annexinV+PI−) cells: drug-treated vs.control (OCI-My-2 [4]; day 1): 0.86 fold; Fold increase in % of apoptotic (annexinV+PI−) cells: drug-treated vs.control (OCI-My-2 [4]; day 2): 1.9 fold; Fold increase in % of apoptotic (annexinV+PI−) cells: drug-treated vs.control (OCI-My-2 [4]; day 3): 2.8 fold; IC50 (COLO205): 3.8 µM; IC50 (OCVR4): 1.5 µM; IC50 (T47D): > 4 µM; IC50 (HS58T): > 4 µM; IC50 (SNB19): > 4 µM; IC50 (CCD967): > 4 µM |

Reference: patent US20100056468A1, “Pyrimidine Derivatives As Anticancer Agents” (University Health Network, priority 2007, published 2010)
